# Counter-ions that a name gives are not always drawn.
# Test system: liver
# Assay: Transcriptional profiling on Affymetrix GeneChips, single dose, naïve mice: liver
# Format: in vivo, C57BL/6 mice
# Conditions: for Number of differentially expressed genes identified: Liver: Naïve, Single Dose, 100 mpk, vs Vehicle
# Procedure: Treated mice were sacrificed at 2, 7, or 12 hours. Tissues (liver, spleen, kidney, jejunum, cortex, hippocampus, striatum and whole blood) were collected and analyzed by transcriptional profiling on mouse Affymetrix GeneChips.
# Tissues (liver, spleen, kidney, jejunum, cortex, hippocampus, striatum and whole blood) were collected and analyzed by transcriptional profiling on mouse Affymetrix GeneChips.
# Animals were exposed to CO2 and whole blood collected via cardiac puncture. Two 100 μl aliquots of whole blood were collected in 1.5 mL microcentrifuge tubes and snap frozen in liquid nitrogen. Peripheral (liver, spleen, kidney and jejunum) and CNS brain (cerebellum, hippocampus, striatum and cortex) tissues were harvested and snap frozen in liquid nitrogen, with special care taken to collect tissues of similar size and from the same location. All samples were stored at −80° C. until RNA extraction was conducted.
# For RNA preparation, frozen tissues were placed in 2 mL RNAse-free 96-well blocks with 1.5 mL QIAzol Lysis Reagent (QIAgen) and a 3.2 mm stainless steel bead (BioSpec Products, Bartlesville, Okla.). Tissues were disrupted for four cycles of 45 seconds in a Mini-Beadbeater (Biospec Products). RNA was extracted in chloroform and the aqueous phase was mixed with an equal volume of 70% ethanol. Extracted RNA was applied to RNeasy 96 plates and purified by the spin method according to the manufacturer's protocol (RNeasy 96 Universal Tissue Protocol, QIAgen, Hilden Germany).
# Automated sample amplifications and biotin labelings were carried out using the NuGEN Ovation RNA Amplification system V2 (Cat #3100), Ovation WB reagent (Cat #1300) and Encore Biotin module (Cat #4200) (NuGEN Technologies, Inc, San Carlos, Calif.) according to manufacturer's recommendations using an Arrayplex automated liquid handler (Beckman Coulter, Indianapolis, Ind.). Two micrograms of biotin labeled sscDNA probe were hybridized to Affymetrix GeneChip Affymetrix HT_MG-430_PM plate arrays with modified conditions as described in Allaire et al. Washing and staining of the hybridized arrays were completed as described in the GeneChip Expression analysis technical manual for HT plate arrays using the Genechip® Array Station (Affymetrix, Santa Clara, Calif.) with modifications as described in Allaire et al. The processed GeneChip® plate arrays were scanned using GeneTitan scanner (Affymetrix, Santa Clara, Calif.).
# Affymetrix scans were subject to quality control (QC) measures. These tests included a visual inspection of the distribution of raw signal intensities and an assessment of RNA degradation, relative log expression (RLE), and normalized unsealed standard error (NUSE). All sample scans that passed these QC metrics were included in the analysis.
# All CEL files were subjected to GC-content-based Robust Multi-array Average (GCRMA) normalization (version 2.20.0) (Irizarry R A, et al. Nucleic Acids Res 2003; 31:e15; Li C, et al. Genome Biol 2001; 2:[…]0032). Expression levels were log (base 2) transformed.
# All calculations and analyses were carried out using R (version 2.11.1) and Bioconductor computational tools (Gentleman R. Springer Science+Business Media 2005).
# [1] = liver, 100 mg/kg, 2 hr, vs matched vehicle controls
compound,measurement,setting,value
"COC(=O)/C=C/C(=O)O [MMF, monomethyl fumarate]",FC 1437867_PM_at (no gene symbol),"LIVER, 100MMF-vs-Veh, 2 h",1.50
same,FC 1444516_PM_at (no gene symbol),"LIVER, 100MMF-vs-Veh, 2 h",2.19
same,FC 1447411_PM_at (no gene symbol),"LIVER, 100MMF-vs-Veh, 2 h",2.81
same,FC 9130221J17Rik (1443159_PM_at),"LIVER, 100MMF-vs-Veh, 2 h",1.57
same,FC Abcc1 (1452233_PM_at),"LIVER, 100MMF-vs-Veh, 2 h",1.86
same,FC Akr1b8 (1448894_PM_at),"LIVER, 100MMF-vs-Veh, 2 h",2.27
same,FC Caprin1 (1448348_PM_at),"LIVER, 100MMF-vs-Veh, 2 h",−1.56
same,FC Clec4d (1420804_PM_s_at),"LIVER, 100MMF-vs-Veh, 2 h",2.05
same,FC Csnk2a1 (1419038_PM_a_at),"LIVER, 100MMF-vs-Veh, 2 h",−1.62
same,FC Figf (1438953_PM_at),"LIVER, 100MMF-vs-Veh, 2 h",2.25
same,FC Figf (1438954_PM_x_at),"LIVER, 100MMF-vs-Veh, 2 h",1.79
same,FC Fxr1 (1452247_PM_at),"LIVER, 100MMF-vs-Veh, 2 h",−1.53
same,FC Gclc (1424296_PM_at),"LIVER, 100MMF-vs-Veh, 2 h",1.72
same,FC Gclc (1455959_PM_s_at),"LIVER, 100MMF-vs-Veh, 2 h",1.64
same,FC Hmox1 1448239_PM_at,"LIVER, 100MMF-vs-Veh, 2 h",2.41
same,FC Meis2 (1440091_PM_at),"LIVER, 100MMF-vs-Veh, 2 h",−1.67
same,FC Pgd (1436771_PM_x_at),"LIVER, 100MMF-vs-Veh, 2 h",1.61
same,FC Pgd (1437380_PM_x_at),"LIVER, 100MMF-vs-Veh, 2 h",1.65
same,FC Ppfibp2 (1417801_PM_a_at),"LIVER, 100MMF-vs-Veh, 2 h",2.55
same,FC Prpf38b (1455016_PM_at),"LIVER, 100MMF-vs-Veh, 2 h",−1.53
same,FC Srxn1 (1419942_PM_at),"LIVER, 100MMF-vs-Veh, 2 h",1.68
same,FC Srxn1 (1426875_PM_s_at),"LIVER, 100MMF-vs-Veh, 2 h",1.63
same,FC Srxn1 (1451680_PM_at),"LIVER, 100MMF-vs-Veh, 2 h",1.55
same,FC 2010003K11Rik (1424626_PM_at),"LIVER, 100MMF-vs-Veh, 7 h",2.20
same,FC 4930588G05Rik (1430175_PM_at),"LIVER, 100MMF-vs-Veh, 7 h",−1.76
same,FC Akr1b8 (1448894_PM_at),"LIVER, 100MMF-vs-Veh, 7 h",1.75
same,FC Bmp6 (1450759_PM_at),"LIVER, 100MMF-vs-Veh, 7 h",1.65
same,FC Cda (1427357_PM_at),"LIVER, 100MMF-vs-Veh, 7 h",1.92
same,FC Clec4n (1419627_PM_s_at),"LIVER, 100MMF-vs-Veh, 7 h",2.40
same,FC Erc2 (1434582_PM_at),"LIVER, 100MMF-vs-Veh, 7 h",−1.95
same,FC Fzd8 (1445815_PM_at),"LIVER, 100MMF-vs-Veh, 7 h",−1.81
same,FC G6pdx (1448354_PM_at),"LIVER, 100MMF-vs-Veh, 7 h",1.61
same,FC Marco (1449498_PM_at),"LIVER, 100MMF-vs-Veh, 7 h",2.44
same,FC Nqo1 (1423627_PM_at),"LIVER, 100MMF-vs-Veh, 7 h",2.20
same,FC Pir (1429001_PM_at),"LIVER, 100MMF-vs-Veh, 7 h",1.50
same,FC Srxn1 (1419942_PM_at),"LIVER, 100MMF-vs-Veh, 7 h",1.52
same,FC Srxn1 (1426875_PM_s_at),"LIVER, 100MMF-vs-Veh, 7 h",1.53
same,FC Srxn1 (1451680_PM_at),"LIVER, 100MMF-vs-Veh, 7 h",1.58
same,FC 1810055G02Rik (1425921_PM_a_at),"LIVER, 100MMF-vs-Veh, 12 h",1.86
same,FC 4933433P14Rik (1431334_PM_a_at),"LIVER, 100MMF-vs-Veh, 12 h",1.81
same,FC Ablim1 (1453103_PM_at),"LIVER, 100MMF-vs-Veh, 12 h",−1.51
same,FC Car3 (1460256_PM_at),"LIVER, 100MMF-vs-Veh, 12 h",−1.57
same,FC Clmn (1439117_PM_at),"LIVER, 100MMF-vs-Veh, 12 h",−1.54
same,FC Ctla2a (1448471_PM_a_at),"LIVER, 100MMF-vs-Veh, 12 h",1.63
same,FC Dnajc12 (1417441_PM_at),"LIVER, 100MMF-vs-Veh, 12 h",2.53
same,FC Fndc3b (1433833_PM_at),"LIVER, 100MMF-vs-Veh, 12 h",1.66
same,FC Gadd45b (1450971_PM_at),"LIVER, 100MMF-vs-Veh, 12 h",1.50
same,FC Gm3579 (1431214_PM_at),"LIVER, 100MMF-vs-Veh, 12 h",2.74
same,FC Hyou1 (1423290_PM_at),"LIVER, 100MMF-vs-Veh, 12 h",1.82
same,FC Hyou1 (1423291_PM_s_at),"LIVER, 100MMF-vs-Veh, 12 h",1.52
same,FC Lrrc59 (1416235_PM_at),"LIVER, 100MMF-vs-Veh, 12 h",1.65
same,FC Nme6 (1448574_PM_at),"LIVER, 100MMF-vs-Veh, 12 h",1.57
same,FC Ppapdc1b (1428154_PM_s_at),"LIVER, 100MMF-vs-Veh, 12 h",1.87
same,FC Ppm1k 1441988_PM_at,"LIVER, 100MMF-vs-Veh, 12 h",−1.56
same,"Number of genes, DMF Only / MMF Only",Liver,34
same,Number of differentially expressed genes identified: Liver,2 h after last dosing,23
same,Number of differentially expressed genes identified: Liver,7 h after last dosing,15
same,Number of differentially expressed genes identified: Liver,12 h after last dosing,16
same,Murine Liver DEGs: Abcc1 (1452233_PM_at),[1],1.86
same,Murine Liver DEGs: Akr1b8 (1448894_PM_at),[1],2.27
same,Murine Liver DEGs: Ampd3 (1422573_PM_at),[1],1.70
same,Murine Liver DEGs: Caprin1 (1448348_PM_at),[1],−1.56
same,Murine Liver DEGs: Clec4d (1420804_PM_s_at),[1],2.05
same,Murine Liver DEGs: Cmah (1447019_PM_at),[1],−1.55
same,Murine Liver DEGs: Csnk2a1 (1419038_PM_a_at),[1],−1.62
same,Murine Liver DEGs: Figf (1438953_PM_at),[1],2.25
same,Murine Liver DEGs: Fxr1 (1452247_PM_at),[1],−1.53
same,Murine Liver DEGs: Gclc (1424296_PM_at),[1],1.72
same,Murine Liver DEGs: Hmox1 (1448239_PM_at),[1],2.41
same,Murine Liver DEGs: Meis2 (1440091_PM_at),[1],−1.67
same,Murine Liver DEGs: Mkln1 (1416734_PM_at),[1],−1.69
same,Murine Liver DEGs: Pgd (1436771_PM_x_at),[1],1.61
same,Murine Liver DEGs: Ppfibp2 (1417801_PM_a_at),[1],2.55
same,Murine Liver DEGs: Prpf38b (1455016_PM_at),[1],−1.53
same,Murine Liver DEGs: Ptprb (1453908_PM_at),[1],−1.76
same,Murine Liver DEGs: Ptprg (1456070_PM_at),[1],−1.85

# From patent US20160115540A1, “PRODRUGS AND DRUGS” (Biogen MA Inc., priority 2013, published 2016)
